The values that follow come from ChEMBL document CHEMBL3822369, “Structure-Based Design of an in Vivo Active Selective BRD9 Inhibitor” (J Med Chem, 2016).

Data set [1] is described as follows: Aqueous solubility of the compound at pH 6.8 by UPLC/UV method. In kind it is physicochemical. To be noted: buffer.
A short description of data set [2]: Cmax in BomTac:NMRI-Foxn1nu mouse at 180 mg/kg, po administered as suspension. In kind it is ADME, organism-based. Details: dose 180 mg/kg, route oral. Particulars: in vivo.
Data set [3] is described as follows: AUC (0 to last) in BomTac:NMRI-Foxn1nu mouse at 20 mg/kg, po administered as suspension. Also on record: dose 20 mg/kg, time 0 - last, route oral. It is filed as ADME, organism-based. To be noted: in vivo.
A short description of data set [4]: Cmax in BomTac:NMRI-Foxn1nu mouse at 20 mg/kg, po administered as suspension. In kind it is ADME, organism-based. To be noted: in vivo. Also on record: dose 20 mg/kg, route oral.
A short description of data set [5]: Apparent permeability in human Caco2 cells across apical side to basolateral side at 10 uM by LC-MS/MS analysis. In kind it is ADME, cell-based. Particulars: Caco-2. For orientation: Passage across Caco-2 layers is used to estimate intestinal permeability.
In data set [6] the test system is Mus musculus. As to the kind of experiment: Clearance in BomTac:NMRI-Foxn1nu mouse plasma at 5 mg/kg, iv administered as bolus. It is filed as ADME, organism-based. Particulars: in vivo.
The nature of data set [7]: (§1) Oral bioavailability in BomTac:NMRI-Foxn1nu mouse at 180 mg/kg, administered as suspension. In kind it is ADME, organism-based. To be noted: BomTac:NMRI-Foxn1nu, in vivo.
Data set [8] can be described thus: Oral bioavailability in BomTac:NMRI-Foxn1nu mouse at 20 mg/kg, administered as suspension. In kind it is ADME, organism-based. Particulars: in vivo.
Data set [9] is described as follows: Volume of distribution at steady state in BomTac:NMRI-Foxn1nu mouse plasma at 5 mg/kg, iv administered as bolus. In kind it is ADME, organism-based. Particulars: read-out: Vdss.
Data set [10] can be described thus: AUC (0 to last) in BomTac:NMRI-Foxn1nu mouse at 180 mg/kg, po administered as suspension. It is filed as ADME, organism-based. Also on record: dose 180 mg/kg, time 0 - last, route oral. To be noted: in vivo.
The test system of data set [11] is Mus musculus. The data set is described as §1. To be noted: in vivo. In kind it is ADME, organism-based.
Data set [12] deals with Mus musculus. The data set is described as follows: AUC (0 to last) in plasma of CIEA-NOG mouse xenografted with human EOL-1 cells at 180 mg/kg, po administered qd for day 5 to 17 and day 20 to 22 post tumor transplantation. In kind it is ADME, organism-based, EOL1. Details: dose 180 mg/kg, time 0 - last, route oral. Particulars: in vivo. On the technique in general: Xenograft models place foreign cells or tissue in a host animal.

A word on the solubility: it is how much of the substance goes into solution per volume. Lower therefore signals little dissolved substance. In general, Cmax refers to the maximum level reached in the sampled fluid or tissue. One may read the AUC(0-t) as the area under the concentration-time curve up to a stated or last time point. A lower AUC(0-t) goes with low exposure. By Papp A→B is commonly meant how fast a substance crosses the layer from the apical side. Usually bioavailability stands for the share of a dose that reaches the circulation, judged against a reference dose that is usually intravenous. `COc1cc(-c2cn(C)c(=O)c3cnccc23)cc(OC)c1CN(C)C` came in with a solubility in data set [1] of more than 91 µg/mL. The Cmax in data set [2] was 25 µM; in data set [4] it was 3 µM. The AUC(0-t) is 7.5 µM·h in data set [3] and 108 µM·h in data set [10]. Further, the Papp A→B at 10 µM in data set [5] is 1.4 ×10⁻⁶ cm/s. The compound also registered a CL in data set [6] of 57%. In addition, the bioavailability in data set [7] came out at 64%; in data set [8], 39%. The Vd in [9] was 1.6 L/kg.

Take `COc1cc(-c2cn(C)c(=O)c3cnccc23)c(OC)cc1CN(C)C`: the solubility in data set [1] was more than 90 µg/mL. The Cmax in data set [2] stood at 35 µM; in data set [4], 5.4 µM. In addition, the AUC(0-t) in [3] turned out to be 15 µM·h; in data set [10], 226 µM·h. Moreover, in data set [5], the Papp A→B at 10 µM amounted to 11 ×10⁻⁶ cm/s. Further, the CL in data set [6] was 65%. The same compound showed a F in data set [11] of 151%. The bioavailability in data set [8] was found to be 88%. The Vd in [9] came out at 2.1 L/kg. Further, the AUClast in [12] is 268 µM·h.
